Patent US10683453B2, “Organic compounds with soluble groups” (Merck Patent GmbH, priority 2014, dated 2020)

assay: Determination of solubility in toluene; assay type: physicochemical; details: stirred at 60° C. for 1 h, cooled to room temperature, yes = clear solution lacking any large particles
Method: Determination of Solubility
In order to examine whether a material has a toluene solubility of 10 mg/ml or more, the procedure is as follows: 20 mg of material in solid form are initially charged in a sample bottle. At room temperature (20° C.), 2 ml of toluene are added. The bottle is closed and the contents are stirred at 60° C. on a heatable magnetic stirrer for 1 h. In the course of this, good thermal contact is ensured by means of an aluminium block having holes into which the bottles fit exactly. After 1 h, the bottle is removed and left to cool to room temperature. If a clear solution lacking any large particles is present in the bottle, at least 10 mg/ml of the material are soluble in toluene.
Solubilities with other solubility limits are determined in entirely the same way. The starting weight is also matched to 2 ml of solvent.

Structure (SMILES) | Solubility in toluene > 2 mg/ml | Solubility in toluene > 5 mg/ml | Solubility in toluene > 10 mg/ml
N#Cc1ccc2c(c1)C1(c3cc(C#N)ccc3-2)c2ccccc2N(c2cc(-c3ccccc3)cc(-c3ccccc3)c2)c2ccccc21 [Compound 6a, 2′,7′-Cyano-10H-terphenyl-10H-spiro(acridine-9,9′-fluorene)] | yes | yes | no
CCCCCCc1cc(CCCCCC)cc(N2c3ccccc3C3(c4ccccc4C(=C(C#N)C#N)c4ccccc43)c3ccccc32)c1 [Compound 9a] | yes | yes | yes
N#CC(C#N)=C1c2ccccc2C2(c3ccccc31)c1ccccc1N(c1c(-c3ccccc3)cc(-c3ccccc3)cc1-c1ccccc1)c1ccccc12 [Compound 9e] | yes | yes | no
CCCCCCc1ccc2c(c1)c1cc(CCCCCC)ccc1n2-c1c(C#N)c(-n2c3ccc(CCCCCC)cc3c3cc(CCCCCC)ccc32)c(C#N)c(-n2c3ccc(CCCCCC)cc3c3cc(CCCCCC)ccc32)c1C#N [Compound 19d] | yes | yes | yes
N#Cc1c(-n2c3ccccc3c3ccccc32)c(C#N)c(-n2c3ccccc3c3ccccc32)c(-n2c3ccccc3c3ccccc32)c1-n1c2ccccc2c2ccccc21 [reference compound] | yes | no | no
N#Cc1ccc2c(c1)C1(c3cc(C#N)ccc3-2)c2ccccc2N(c2ccccc2)c2ccccc21 [reference compound] | no | no | no
N#CC(C#N)=C1c2ccccc2C2(c3ccccc31)c1ccccc1N(c1ccccc1)c1ccccc12 [reference compound] | yes | no | no
